Test system: western and northern corn rootworm
Experiment: Field trial (Example 3): corn rootworm damage by Iowa class, percent of control and synergy threshold
Type: in vivo
Experimental: The determination of damage by corn rootworm was made according to the following protocol. At stage V4-V6, an evaluation of early stand was made by counting the number of plants per acre. At stage VT-R1, an evaluation of corn rootworm damage was carried out by methods that are well known in the industry, and damage by corn rootworm was reported according to the Iowa 1-6 rating system. In that system, the root systems of 10 corn plants per plot are recovered and scored using the 1-6 rating scale, where: 1=no injury or only a few minor feeding scars, 2=feeding injury evident, but no roots eaten back to 1½ inches of the plant, 3=at least one root eaten off to within 1½ inches of the plant, but never an entire node of roots destroyed, 4=one node of roots eaten back to within 1½ inches of the plant, 5=two nodes (circles) of roots eaten back to within 1½ inches of the plant, 6=three nodes (circles) of roots eaten back to within 1½ inches of the plant.
A field trial was run in accordance with pertinent protocols and in conformance with USDA notification requirements. The purpose of the trial was to determine the efficacy of transgenic event Cry3Bb.11231 in corn seed in combination with corn rootworm seed treatments using imidacloprid.
For each growing site that was selected, the plot design included the following:
The following seed treatment combinations were used for each growing area:
All seed treatments with pesticides were carried out as described in Example 1. In seed treatment number 1 and 2, Gaucho® was used for wire worm protection, but at levels sufficiently low that it would be expected to have no effect on corn rootworms (i.e., at a treatment level of about 60 gm of active/100 kg seed or 0.16 mg active/kernel), otherwise, seed receiving treatment number 2 had only transgenic event Cry3Bb.11231 and no pesticide treatment that would be expected to be effective against corn rootworm.
For seeds having treatments numbered 3 through 5, the pesticides were applied by the methods described in Example 1. For seeds having treatment numbers 6 and 7, commercially available Force® 3G and Lorsban® 15G were applied to the soil in a 5″ band at the time of sowing. The levels of application are as shown and are within the ranges recommended for standard commercial practice.
Corn seeds to be tested were planted and grown at four different locations across several Midwestern states in the United States corn belt according to the protocol described above.
The determination of damage by corn root worm was made according to the protocol described in Example 2.
The combination of imidacloprid seed treatment with corn seed having a Cry3Bb.11231 transgenic event was tested for possible synergy at a level of rootworm damage of 3-6. In the first test, shown in Table 2(A), the percentage of test plants having damage levels of from 3 to 6, on the Iowa 1-6 Scale, was determined for the control and for seeds treated with the pesticide at two levels, and for seeds having the transgenic event, alone and in combination. The following formula was then used to calculate a “synergy threshold”:
(% of control Cry3Bb.11231)*(% of control imidacloprid treatment)/100.
This threshold was compared against the percent of control for the treatment combination (i.e., Cry3Bb.11231 with imidacloprid @ 400 gm/100 kg). If the treatment combination percent of control was below the threshold, then it was concluded that there was synergy.
It was believed that the measurement of rootworm damage at higher damage levels (i.e., levels 3-6) is a useful indicator that correlates with subsequent yield loss due to such damage. The reason for this is that rootworm damage at levels 1 and 2 seldom causes corn plants to fall over and lodge, and such minimal root loss is not believed to reduce the number or weight of kernels per ear. However, root damage at levels of 3 and above increasingly causes lodging and loss of yield. […]

In the case of `O=[N+]([O-])NC1=NCCN1Cc1ccc(Cl)nc1` [Imidacloprid, 1-[(6-chloro-3-pyridinyl)methol]-N-nitro-2-imidazolidinimime], the “PERCENT OF CONTROL” value (Table 2(A), plants with damage levels 3-6 relative to isohybrid control, imidacloprid @ 400 g/100 kg of seed) is reported as 80.5%, the “NUMBER OF PLANTS HAVING 3-6 DAMAGE LEVEL” value (Table 2(B), Iowa 1-6 Scale levels 3-6, imidacloprid @ 400 gm/100 kg) is reported as 71.7 and the “PERCENT OF CONTROL” value (Table 2(B), damage levels 3-6 relative to untreated control, imidacloprid @ 400 gm/100 kg) is reported as 80.5%. For the same compound, the “protection against corn rootworm damage (in words)” value (imidacloprid at 400 gm/100 kg of seed) was “effective against corn rootworm damage”, the “CORN ROOTWORM DAMAGE IN EACH IOWA CLASS (IOWA 1-6 SCALE): 1” value (plants in Iowa class 1, imidacloprid @ 400 g/100 kg of seed, FORCE and LORSBAN as surface band at planting) was 3 and the “CORN ROOTWORM DAMAGE IN EACH IOWA CLASS (IOWA 1-6 SCALE): 2” value (plants in Iowa class 2, imidacloprid @ 400 g/100 kg of seed, FORCE and LORSBAN as surface band at planting) was 15. The “CORN ROOTWORM DAMAGE IN EACH IOWA CLASS (IOWA 1-6 SCALE): 3” value (plants in Iowa class 3, imidacloprid @ 400 g/100 kg of seed, FORCE and LORSBAN as surface band at planting) was 36, the “CORN ROOTWORM DAMAGE IN EACH IOWA CLASS (IOWA 1-6 SCALE): 4” value (plants in Iowa class 4, imidacloprid @ 400 g/100 kg of seed, FORCE and LORSBAN as surface band at planting) was 21 and the “CORN ROOTWORM DAMAGE IN EACH IOWA CLASS (IOWA 1-6 SCALE): 5” value (plants in Iowa class 5, imidacloprid @ 400 g/100 kg of seed, FORCE and LORSBAN as surface band at planting) was 5. The “CORN ROOTWORM DAMAGE IN EACH IOWA CLASS (IOWA 1-6 SCALE): 6” value (plants in Iowa class 6, imidacloprid @ 400 g/100 kg of seed, FORCE and LORSBAN as surface band at planting) was 0.

Source: patent publication US6593273B2, “Method for reducing pest damage to corn by treating transgenic corn seeds with pesticide” (priority 2000, dated 2003)
